Patent publication US12521423B2, “Method and composition for treating gastrointestinal inflammatory disorders” (THE REGENTS OF THE UNIVERSITY OF COLORADO, a body corporate, priority 2019, dated 2026)
Read-outs that look alike come from different tables or passages of the source.

Experiments:
DSS-induced colitis = experiment: DSS colitis in CR mice, streptomycin treatment and K12 colonization; details: colon tissue
Description: (§2) Bacterial supply of purine was depleted in CR mice (CR-CNTL) via streptomycin treatment (S-CR-CNTL), and reconstituted by colonization with streptomycin-resistant K12 (S-CR-K12).
Visualization of the colon tissues by hematoxylin and eosin (H&E) staining in the CR mouse groups reveal two key differences between tissue with and without MDP supply. […] These phenotypes correlate with the adenylate energy charge (AEC, (ATP+0.5×ADP)/(ATP+ADP+AMP))—a commonly used index used to indicate cellular energy status that is defined by relative adenine nucleotide levels, providing a more functionally relevant indicator of energy balance than ATP and/or PCr alone.
Given the association between the AEC and cellular function and the metabolic data indicative of MDP promoting flux through ATP, the colon tissue analyses were extended to Ki67 as marker of proliferation.
Due to the importance of ATP supply for ER function, the colon tissue immunofluorescent analyses were extended to BiP as a marker of ER stress and the UPR.
Goblet cells require robust ER function for mucin protein folding and dimerization, prompting analyses of the impact of MDP on colonic mucin production and secretion. To observe mucin production tissue sections were stained with alcian blue. […]

[1] = system: total colonic purine levels; experiment: colon tissue metabolites at baseline in CR mice, streptomycin treatment and K12 colonization; type: in vivo; details: no DSS
Description: as §2

murine microbiota = experiment: HPLC analyses of murine fecal extracts after streptomycin treatment; type: in vivo, mice
Description: Analyses of soluble, extracellular murine fecal metabolite extracts by HPLC identified substantial levels of available purine (˜550 nmol/g), primarily as hypoxanthine (Hpx, ˜350 nmol/g). The production of purines by the microbiota was verified by fecal extract analyses of streptomycin-treated mice, which decreased the available fecal purine more than 80%, lowering available Hpx to <50 nmol/g.

[2] = 10 mM Hpx in drinking water
Procedure: (§1) To validate the role of exogenous purine supply on colonic function, streptomycin-treated mice (S-0 mM HPX-DSS) were supplemented with 1 and 5 mM Hpx (S-1 mM HPX-DSS and S-5 mM HPX-DSS) in their drinking water and submitted to DSS colitis.

DSS colitis = details: for body weight lost: no Hpx ~9; for sterility index: from 0; for tissue AEC: from 0.30; for BiP: from 0.41; for sterile inner mucin layer: from ~1; for colon length: no Hpx ~5.75
Procedure: as §1

T84 cells [3] = experiment: HPLC adenylate and energy metabolite analyses of treated T84 cells; type: cell-based
T84 cells [4] = experiment: calcium switch assay / transepithelial resistance of T84 monolayers; type: cell-based
Procedure: This model utilizes transient divalent cation chelation to disrupt epithelial tight junctions in fully confluent cells.
Briefly, polarized, high-resistant (>1,500 Ω·cm2) T84 monolayers on 0.33 cm^2 (non-metabolomic) or 5 cm^2 (metabolomics) transwell inserts (Costar, 0.4 μm) were equilibrated for 1 h in HBSS in the case of non-metabolomic analyses and approx. 20 h in the case of metabolomic analyses. All experiments were performed at 37° C. and transepithelial resistance monitored using a voltohmeter (World Precision Instruments EVOM). Extracellular Ca^2+ was chelated via washing and incubation with Ca^2+-free HBSS supplemented with 2 mM EDTA for 5 min, after which the samples were washed into HBSS with normal calcium (1.8 mM).
To our surprise, this analysis identified an inverse correlation between Hpx and barrier, with Hpx spiking from approx. 1 to 3.5 μM (p<0.004) at the barrier nadir. […] To extend this observation, T84 cells were supplemented with Hpx (range 0.1-1 mM, 20 h) and a calcium switch assay performed.
Allopurinol (Allo) is a structural analog of hypoxanthine commonly used to treat gout. The drug is metabolized into oxipurinol by xanthine oxidase (XO), which in turn inhibits XO and decreases uric acid. Allopurinol was employed as a competitive substrate/inhibitor for hypoxanthine-guanine phosphoribosyl transferase (HGPRT) to assess the contribution of Hpx salvage to the barrier formation process using the calcium switch assay and transepithelial resistance measurements described above.

T84 cells [5] = details: 1 mM Hpx
Procedure: To examine the impact of Hpx supplementation on epithelial function during physiologically-relevant metabolic stress, T84 cells were exposed to hypoxia (1% O2, 40 h) in the presence and absence of 1 mM Hpx, and barrier and adenylate metabolites monitored.

T84 cells [6] = details: 1 mM hypoxanthine, 88 h, p<0.001
Procedure: We also employed a scratch wound assay to assess the influence of Hpx supplementation on cellular restitution. T84 cells were plated at 35,000 cells per well on a 96-well ImageLock tissue culture plate (Essen Bioscience Inc.) and incubated in standard conditions until a confluent cell monolayer formed (˜24 h). Precise and reproducible wounds were made in all wells with a WoundMaker (Essen Bioscience Inc.). […] Initial images were taken immediately after wounding at 10× using the IncuCyte live-cell imaging (Essen Bioscience Inc.), and then every 2 h over the course of 88 h in culture. Relative wound closure (%) was quantified for every image using the relative wound density metric, a measure of cell density in the wound area relative to the cell density outside of the wound area.

[7] = system: colonic adenylate and energy metabolism; details: Hpx 1 mM enema 5 and 18 h before sacrifice
Procedure: To assess the influence of purine supplementation on colonic adenylate and energy metabolism, MDP was depleted by treating mice with streptomycin, and reconstituted by administration of Hpx (1 mM) by enema at time points of 5 and 18 h before sacrifice and distal colon tissue metabolite extracts analyzed.

[8] = subconfluent T84 cells, Allo 20 h

[H]/N=C(/N)N[C@H]1[C@H](O)[C@@H](O)[C@H](O[C@@H]2O[C@@H](C)[C@](O)(C=O)[C@H]2O[C@@H]2O[C@@H](CO)[C@H](O)[C@@H](O)[C@@H]2NC)[C@@H](N/C(N)=N\[H])[C@@H]1O [streptomycin]
goblet cell thecal volumes (alcian blue) (DSS-induced colitis): broad decline | adenylate energy charge (AEC) (DSS-induced colitis; CR-CNTL-DSS 0.51): 0.44 | colon tissue Xan ([1]; CR-CNTL 207): 69 nmol/g | total colonic purine levels ([1]; CR-CNTL 809): 630 nmol/g | measurable fecal hypoxanthine (murine microbiota; 1 day after streptomycin treatment): nearly complete loss | available fecal Hpx (murine microbiota; streptomycin-treated mice): < 50 nmol/g | decrease of available fecal purine (murine microbiota; streptomycin-treated mice): more than 80%

O=c1[nH]cnc2nc[nH]c12 [Hpx, hypoxanthine]
urination [2]: excessively urinate | body weight lost (DSS colitis; 1 mM Hpx in drinking water): ~3% | sterility index (DSS colitis; 1 mM Hpx): 0.56 | tissue proliferation (DSS colitis; 1 mM Hpx, from 0.22): 0.54 Ki67/DAPI | tissue AEC (DSS colitis; 1 mM Hpx): 0.38 | BiP (DSS colitis; 1 mM Hpx): 0.23 BiP/DAPI | sterile inner mucin layer (DSS colitis; 1 mM Hpx): ~9 μm | colon length (DSS colitis; 1 mM Hpx): ~6.3 cm | body weight lost (DSS colitis; 5 mM Hpx in drinking water): ~7% | tissue proliferation (DSS colitis; 5 mM Hpx, control 0.22): 0.19 Ki67/DAPI | sterility index (DSS colitis; 5 mM Hpx): 0.78 | tissue AEC (DSS colitis; 5 mM Hpx): 0.42 | BiP (DSS colitis; 5 mM Hpx): 0.24 BiP/DAPI | sterile inner mucin layer (DSS colitis; 5 mM Hpx): ~11 μm | colon length (DSS colitis; 5 mM Hpx): ~6.5 cm | epithelial cell population and mucin production (H&E) (DSS colitis; Hpx supplementation): recovered | goblet cell mucin production, thecal volumes (DSS colitis; Hpx supplementation): increased thecal volumes | increase of intracellular Hpx levels (T84 cells [3]; T84 cells, Hpx 0.1-1 mM, 20 h pre-exposure): up to 100 fold | barrier throughout the course of the experiment (T84 cells [4]; 300 μM and 1 mM Hpx, p<0.03): improved barrier | cellular barrier and barrier reformation (calcium switch) (T84 cells [4]; Hpx pre-loading 0.1-1 mM, 20 h): protective of cellular barrier and promoted barrier reformation in a dose-responsive manner | total available energy (TAE) under hypoxia (T84 cells [5]; hypoxia 1% O2): significant recovery | increase of overall barrier resistance above control conditions (T84 cells [5]; hypoxia 1% O2, 40 h): approx. 1.3 fold | increase of epithelial wound closure rate following scratching (T84 cells [6]): approx. 1.5 fold | colonic AMP ([7]; from 58): 84 nmol/g | colonic ADP ([7]; from 80): 123 nmol/g | colonic ATP ([7]; from 192): 154 nmol/g | total colonic purine ([7]; from 490): 560 nmol/g | colonic phosphocreatine (PCr) ([7]; from 3700): 2000 nmol/g

Nc1ncnc2c1ncn2[C@@H]1O[C@H](COP(=O)(O)OP(=O)(O)O)[C@@H](O)[C@H]1O [ADP, adenosine diphosphate]
Hpx increase in T84 IECs (T84 cells [3]; 100 μM ADP): ~15 fold

Oc1ncnc2[nH]ncc12 [Allo, Allopurinol]
Adenine, IMP, and UA levels (T84 cells [3]; [8]): undetectable to trace levels | TAE (T84 cells [3]; [8]): corresponding increase | Xan and Ino levels (T84 cells [3]; [8]): small increases | PCr level (T84 cells [3]; subconfluent T84 cells, Allo 20 h, from approx. 20): ~27 µM | Hpx level (T84 cells [3]; subconfluent T84 cells, Allo 20 h, from approx. 400): ~250 nM | Ado level (T84 cells [3]; subconfluent T84 cells, Allo 20 h, from trace/undetectable): approx. 400 nM | T84 cell barrier formation (T84 cells [4]; Allo 1 mM, p<0.001): significantly attenuated

Nc1ncnc2c1ncn2[C@@H]1O[C@H](CO)[C@@H](O)[C@H]1O [adenosine]
Hpx increase in T84 IECs (T84 cells [3]; 1 mM adenosine): over 150 fold
